| melting point [°C] | Compound |
| --- | --- |
| 132 to 134 | COC(=O)C(C)(C)OCc1cc2cc(C(F)(F)F)ccc2n1S(=O)(=O)c1cc(C)cc(C)c1 |
| 120 to 121 | COc1ccc(C(c2ccccc2)(c2ccc(OC)cc2)C(F)(F)F)cc1 |
| 285 to 287 | Cc1cc2c(-c3cccc(-c4noc(=O)[nH]4)c3)c(CC(=O)Nc3ccc(F)cc3C(F)(F)F)c(=O)oc2cc1Cl |
| 121 to 122 | COc1ccc(-c2nc(Sc3ccc(Cl)cc3)[nH]c2-c2ccc(OC)cc2)cc1 |
| 350 | Cn1c2ccc(Cl)cc2c(=O)n2nc(C#N)cc12 |
| 77.8 to 79.2 | CCCCOc1ccc(CO)c(Oc2ncc(C(F)(F)F)cc2Cl)c1 |
| 50 to 53 | Clc1ccc(-n2cccn2)cc1 |
| 201 to 202 | CCOC(=O)C(C)(C)n1c(=O)[nH]c2cc(Cl)ccc2c1=O |
| 77 to 79 | NC(=O)C(Oc1ccc(Cl)cc1)(C(F)(F)F)C(F)(F)F |
| 152 to 154 | O=C(O)COc1ccc(NC(=O)OCc2ccccc2)cc1 |
| 86 to 87 | COc1ccc2oc(C(=O)CBr)cc2c1 |
| 235 to 237 | COC(=O)c1ccc2[nH]c(=O)n(Cc3ccc(OC)cc3)c(=O)c2c1 |

More lines, now with the values behind:

| Compound | melting point [°C] |
| --- | --- |
| Fc1ccc2c(c1)OCc1c(-c3noc(C4CC4)n3)ncn1-2 | 182 to 184 |
| CC(=O)OC1CSC(Oc2cccc(-c3cccnc3C)c2)C(OC(C)=O)C1OC(C)=O (stereo not given) | 153 |
| CCOC(=O)C(=CNN(C)C=O)C(=O)c1cc(F)c(F)c(F)c1F | 189 |
| CCOc1cc(-c2nc3ccccc3[nH]2)n[nH]1 | 217 to 220 |
| O=C1NC(=O)C(c2ccccc2Cl)C1SC1=NCCS1 (stereo not given) | 195 to 200 |
| O=c1c2c(N3CCNCC3)cc(Cl)cc2n(Cc2ccccc2)c(=O)n1CCCc1ccccc1 | 62 to 68 |
| CCCc1nc2c(N)nc3cc(OCc4ccc(C(F)(F)F)cc4)ccc3c2n1CC(C)C | 192 to 194 |
| ON=C1CCCc2c1c1cccc3c1n2CC3 | 271 to 272 |
| O=C1NC(=NC2CCCC2)C(c2ccc3[nH]ccc3c2)N1c1ccc2[nH]cnc2c1 (stereo not given) | 210 |
| COc1cc2ncnc(N3CCC(N)CC3)c2cc1OC | 133 to 135 |
| CCCN(CCC)S(=O)(=O)c1cc(OC)c(OC)cc1C=Cc1nc2c(c(=O)n(CCC)c(=O)n2CCC)n1C | 208 |
| O=C1NC(=O)c2ccc(Br)cc2/C1=C/NCCc1c[nH]c2ccccc12 | 278 to 280 |
| Cc1ccc(Sc2ccc(C(=O)O)cc2)cc1 | 105 to 107 |
| CCOc1cccc(-c2c(C)c(=O)cc(-c3ccccc3)n2-c2ccccc2)c1 | 146 to 149 |
| C=CCP(=O)(c1ccccc1)c1ccccc1 | 94 to 96 |
| CC(C)(Cl)CC(N)C(=O)NC(C(=O)Nc1ccccc1)C(=O)c1ccccc1 (stereo not given) | 145 to 147 |
| O=C(O)C12CCCCC1CSc1ccccc12 (stereo not given) | 200 to 203 |
| Clc1ccccc1-c1nc(Cl)n(-c2ccccc2Cl)n1 | 95.5 |
| O=C1c2nccc(Cl)c2-c2nc3ccccc3c3ccnc1c23 | > 260 |
| CC(C)(C)NS(=O)(=O)c1ccc(N)cc1 | 127 |
| CC(=O)NC[C@H]1CN(c2ccc(N3CCN(C(=O)CO)CC3)c(F)c2)C(=O)O1 | 87 to 90 |
| CCCCCCCCCCCCCCCCSC(=O)Nc1ccc(NC(=O)NS(=O)(=O)c2ccc3ccccc3c2)cc1 | 190 |
| O=C(NC(=O)N1CCC(Cc2ccccc2)CC1)c1ccc(OCc2ccccc2)cc1 | 155 to 156 |
| CCN1CCCNC1=C[N+](=O)[O-] | 126 to 127 |
| CC(C)[C@H](NC(=O)N1CCOCC1)C(=O)N[C@@H](Cc1ccccc1)C[C@H](O)[C@H](Cc1ccccc1)NC(=O)[C@@H](NC(=O)N1CCOCC1)C(C)C | 198 to 201 |
| COc1cc(OC)c2c(=O)[nH]c(-c3ccccn3)nc2c1 | 215 to 217 |
| CCCCNC(=O)c1cc([N+](=O)[O-])cnc1C | 98 to 99 |
| COC(=N)CCSCc1csc(N=C(N)N)n1 | 126 |
